Laboratory results reported in the NIST ThermoML archive (doi:10.1016/j.tca.2010.11.025).
Numbers after ± are expanded uncertainties.

Columns and labels:
[1] = refractive index (Na D-line) (dimensionless); conditions: 298.15 K; 101.33 kPa; Liquid; Standard Abbe refractometry
[2] = 298.15 K; 101.33 kPa; Liquid; Pycnometric method

For `CN1CCCN(C)C1=O` [1,3-dimethyl-3,4,5,6-tetrahydro-2(1H)-pyrimidinone], the refractive index [1] was 1.4878 ± 0.0007 and the mass density [2] was 1060.06 ± 0.96 kg/m3.
